We go through eight compounds from patent US9872861B2, “Methods of treatment using selective Bcl-2 inhibitors” (AbbVie Inc., priority 2010, dated 2018).

The target in test [1] is Bcl-XL (Homo sapiens, UniProt Q07817). Briefly: TR FRET competitive binding affinity, Bcl-XL. The settings on record: read-out: Target Affinity TR FRET, Bcl-XL. Here is the method: (§1) A comparison of the binding affinity for each of the compounds was performed to determine target affinity, as measured by Time-Resolved Fluorescence Resonance Energy Transfer (TR FRET).
Chain of Bcl-XL (Q07817 whole entry): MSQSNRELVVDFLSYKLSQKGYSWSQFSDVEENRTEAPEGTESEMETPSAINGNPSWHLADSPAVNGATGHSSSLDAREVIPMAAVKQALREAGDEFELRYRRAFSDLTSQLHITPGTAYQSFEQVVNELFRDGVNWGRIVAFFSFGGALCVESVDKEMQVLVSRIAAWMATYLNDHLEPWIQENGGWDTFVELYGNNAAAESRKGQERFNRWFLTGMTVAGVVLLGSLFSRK
In general terms: In TR-FRET formats the signal depends on donor and acceptor labels being close together.

The test system of test [2] is H146 cells. Briefly: Cellular efficacy in Bcl-XL dependent tumor cell line H146. It is filed as cell-based. The settings on record: Homo sapiens, NCI-H146; 10% HS.
Test [3] has as its system RS4;11 cells. Put plainly: Cellular efficacy in Bcl-2 dependent tumor cell line RS4;11. It is filed as cell-based, human. The settings on record: Homo sapiens, RS4-11; 10% HS.
In test [4] the test system is FL5.12-Bcl-XL cells. Put plainly: Cellular efficacy in FL5.12 cells dependent on Bcl-XL. Particulars: Mus musculus, 3% FBS. It is filed as cell-based, murine.
The subject of test [5] is peripheral blood immune cells. Put plainly: Peripheral blood lymphocytes in C57BL/6 mice, Cell Dyn hematology analyzer. It is filed as in vivo. Particulars: for inhibition in vivo at 100 mg/kg: Mus musculus, Lymphocyte. Here is the method: The effect of the Bcl-2 selective/Bcl-XL sparing compounds on peripheral blood immune cells was also evaluated in C57BL/6 mice. Mice were treated four days with individual compounds (100 mg/kg, orally every day) and cell numbers were measured with a Cell Dyn hematology analyzer.

Test [6] concerns FL5.12-Bcl-2 cells. Briefly: Cellular efficacy in FL5.12 cells dependent on Bcl-2. The test is classed as cell-based, murine. Particulars: Mus musculus, 3% FBS.
In test [7] the target is Mcl-1 (Homo sapiens, UniProt Q07820). Briefly: TR FRET competitive binding affinity, Mcl-1. Particulars: read-out: Target Affinity TR FRET, Mcl-1. The protocol:
as §1

Test [8] addresses Bcl-2 (Homo sapiens, UniProt P10415). Put plainly: TR FRET competitive binding affinity, Bcl-2. Particulars: read-out: Target Affinity TR FRET, Bcl-2. The protocol: as §1
The test system of test [9] is IFNα-induced (NZB×NZW)F1 lupus model. Briefly: IFNα-induced (NZB×NZW)F1 lupus model: proteinuria, survival, lymphopenia. It is filed as in vivo, (NZB×NZW)F1 mice. Particulars: 100 mg/kg/day orally. Here is the method:
Treatment was initiated in a late-prophylactic mode (7 days after IFNα adenovirus). […] All treatment groups were administered treatment 7 days after adenovirus injection. Following adenovirus injection, mice were monitored weekly for proteinuria (PU) using Albustix test strips (VWR). Severe PU was defined by consecutive weekly measurements of PU≧300 mg/dl. When mice became moribund, they were sacrificed according to Institutional Animal Care and Use Committee protocols.

For test [10], the system named is spontaneous (NZB×NZW)F1 murine model of lupus. Put plainly: Spontaneous (NZB×NZW)F1 murine model of lupus: proteinuria, survival, lymphopenia. It is filed as in vivo, (NZB×NZW)F1 mice. The settings on record: Week 47, 100 mg/kg daily oral. From the text:
(See Liu, K. and C. Mohan, What do mouse models teach us about human SLE? Clin Immunol, 2006. 119(2): p. 123-30) This model has been well-characterized with respect to the patho-physiological changes analogous to those of human SLE. […] Renal histopathological changes include severe glomerulonephritis, mesangial and peripheral proliferative changes, capillary membrane thickening, tubular atrophy, and infiltration of lymphocytes and monocytes/macrophages as in the majority of human SLE patients. These changes result in disruption of kidney function as evidenced by severe proteinuria (PU) greater than 300 mg/dL as measured by albumin sticks, followed by mortality as measured by survival. […] (See Gelfand, M. C. and A. D. Steinberg, Therapeutic studies in NZB-W mice. II. Relative efficacy of azathioprine, cyclophosphamide and methylprednisolone. Arthritis Rheum, 1972. 15(3): p. 247-52; and Ramos, M. A., et al., Modulation of autoantibody production by mycophenolate mofetil: effects on the development of SLE in (NZB×NZW)F1 mice. Nephrol Dial Transplant, 2003. 18(5): p. 878-83)
(NZB×NZW)F1 females were purchased from The Jackson Laboratory (Bar Harbor, Me., USA) and maintained in a conventional animal housing facility throughout the experiment. […] Proteinuria (PU) and survival were monitored weekly, followed by biweekly measurement of lymphocyte and platelet counts, and anti-ds DNA production. PK parameters were also measured throughout the study. Impact on IgG deposition and renal pathology were assessed at the conclusion of the study. Severe PU was defined by two consecutive weekly measurements of PU 300 mg/dl using Albustix test strips (VWR). When mice became moribund, they were sacrificed according to Institutional Animal Care and Use Committee protocols. PU and survival data were presented as Kaplan-Meyer survival curves using Graphpad Prism software and group differences were considered significant at the level of p<0.05. Histologic scores were analyzed using ANOVA analysis. Anti-ds DNA were analyzed using one-way ANOVA analysis and Tukey post-test.

Where [11] appears, read: 24 h, 1 oral dose of 100 mg/kg, read-out: Day 1 % Reduction vs. Vehicle.
Setting [12] is: 96 h, 4 oral doses of 100 mg/kg, read-out: Day 4 % Reduction vs. Vehicle.

Structures are written as SMILES. pEC50, pKi: −log10 of the molar value. Where two headings read alike, the source gives them in different places. Marks after values point to notes of the source that are not given here. Where only a bound is given, the exact number is not on record here.

Chain of Bcl-2 (P10415 whole entry): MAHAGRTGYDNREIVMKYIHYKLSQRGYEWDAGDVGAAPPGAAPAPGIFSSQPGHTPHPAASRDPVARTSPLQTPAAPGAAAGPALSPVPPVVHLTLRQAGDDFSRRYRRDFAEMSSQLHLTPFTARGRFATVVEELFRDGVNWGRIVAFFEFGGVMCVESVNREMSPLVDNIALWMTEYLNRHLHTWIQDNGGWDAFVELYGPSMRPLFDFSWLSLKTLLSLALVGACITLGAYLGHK
Chain of Mcl-1 (Q07820 whole entry): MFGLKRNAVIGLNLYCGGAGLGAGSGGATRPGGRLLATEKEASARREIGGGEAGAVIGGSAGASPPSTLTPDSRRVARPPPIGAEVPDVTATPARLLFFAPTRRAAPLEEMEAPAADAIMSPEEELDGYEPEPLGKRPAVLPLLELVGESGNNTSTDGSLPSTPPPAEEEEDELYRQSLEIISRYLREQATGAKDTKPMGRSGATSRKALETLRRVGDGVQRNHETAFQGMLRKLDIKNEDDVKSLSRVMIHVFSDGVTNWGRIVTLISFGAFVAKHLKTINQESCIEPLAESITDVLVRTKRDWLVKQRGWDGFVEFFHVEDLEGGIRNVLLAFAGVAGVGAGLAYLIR

For `CC1(C)CCC(CN2CCN(c3ccc(C(=O)NS(=O)(=O)c4ccc(N[C@H]5CC[C@H](N6CCOCC6)CC5)c([N+](=O)[O-])c4)c(Oc4cnc5[nH]ccc5c4)c3)CC2)=C(c2ccc(Cl)cc2)C1` [Compound 4, Trans-4-(4-{[2-(4-chlorophenyl)-4,4-dimethylcyclohex-1-en-1-yl]methyl}piperazin-1-yl)-N-({4-[(4-morpholin-4-ylcyclohexyl)amino]-3-nitrophenyl}sulfonyl)-2-(1H-pyrrolo[2,3-b]pyridin-5-yloxy)benzamide], the pKi in test [1] was 8.14. Moreover, the pEC50 was under 5.30 in [2], 7.49 in [3], 7.15 in [4] and 8.92 in test [6]. For the same compound, in test [5] (1 oral dose of 100 mg/kg), the “Day 1 Lymphocytes” value is 2.62 ×10^6. Further, the “Day 4 lymphocytes” value in [5] (4 oral doses of 100 mg/kg) was 1.72 ×10^6. For the same compound, the inhibition in vivo at 100 mg/kg in [5] (setting [11]) worked out at 57%; in test [5] (setting [12]), 73%.

For `CC1(C)CCC(CN2CCN(c3ccc(C(=O)NS(=O)(=O)c4ccc(NC[C@H]5CN(C6CC6)CCO5)c([N+](=O)[O-])c4)c(Oc4cnc5[nH]ccc5c4)c3)CC2)=C(c2ccc(Cl)cc2)C1` [Compound 7, 4-(4-{[2-(4-chlorophenyl)-4,4-dimethylcyclohex-1-en-1-yl]methyl}piperazin-1-yl)-N-{[4-({[(2S)-4-cyclopropylmorpholin-2-yl]methyl}amino)-3-nitrophenyl]sulfonyl}-2-(1H-pyrrolo[2,3-b]pyridin-5-yloxy)benzamide], in [1], the pKi was 8.03. Further, the pEC50 in test [2] is 6.03; in test [3] it was 8.57. Also, the “Day 1 Lymphocytes” value in [5] (1 oral dose of 100 mg/kg) is on record as 0.89 ×10^6. The “Day 4 lymphocytes” value in test [5] (4 oral doses of 100 mg/kg) is 0.95 ×10^6. In addition, the inhibition in vivo at 100 mg/kg in test [5] (setting [11]) and in test [5] (setting [12]) was 85% each time.

Take `CN1CCN(Nc2ccc(S(=O)(=O)NC(=O)c3ccc(N4CCN(CC5=C(c6ccc(Cl)cc6)CC(C)(C)CC5)CC4)cc3Oc3cnc4[nH]ccc4c3)cc2[N+](=O)[O-])CC1` [Compound 10, 4-(4-{[2-(4-chlorophenyl)-4,4-dimethylcyclohex-1-en-1-yl]methyl}piperazin-1-yl)-N-({4-[(4-methylpiperazin-1-yl)amino]-3-nitrophenyl}sulfonyl)-2-(1H-pyrrolo[2,3-b]pyridin-5-yloxy)benzamide]: the pKi in [1] is 7.68; in test [7], under 6.36. In addition, the pEC50 in test [2] was 5.54; in [3] it was 7.51; in test [4], 6.56; in test [6], 7.92. In addition, the “Day 1 Lymphocytes” value in test [5] (1 oral dose of 100 mg/kg) is listed as 2.25 ×10^6. For the same compound, the “Day 4 lymphocytes” value in [5] (4 oral doses of 100 mg/kg) is 2.48 ×10^6. Also, the inhibition in vivo at 100 mg/kg was determined as 65% in test [5] (setting [11]) and 71% in test [5] (setting [12]).

Take `CC1(C)CCC(CN2CCN(c3ccc(C(=O)NS(=O)(=O)c4ccc(OCC5(F)CCN(C6COC6)CC5)c(Cl)c4)c(Oc4cnc5[nH]ccc5c4)c3)CC2)=C(c2ccc(Cl)cc2)C1` [Compound 11, N-[(3-chloro-4-{[4-fluoro-1-(oxetan-3-yl)piperidin-4-yl]methoxy}phenyl)sulfonyl]-4-(4-{[2-(4-chlorophenyl)-4,4-dimethylcyclohex-1-en-1-yl]methyl}piperazin-1-yl)-2-(1H-pyrrolo[2,3-b]pyridin-5-yloxy)benzamide]: the pKi in test [1] was 7.92. For the same compound, the pEC50 was 5.52 in test [2] and 7.92 in test [3]. Besides, the “Day 1 Lymphocytes” value in test [5] (1 oral dose of 100 mg/kg) is reported as 1.76 ×10^6. In addition, the “Day 4 lymphocytes” value in [5] (4 oral doses of 100 mg/kg) is 1.71 ×10^6. Moreover, the inhibition in vivo at 100 mg/kg in [5] (setting [11]) is 73%; in [5] (setting [12]) it was 80%.

With `CC1(C)CCC(CN2CCN(c3ccc(C(=O)NS(=O)(=O)c4cnc(OC[C@H]5CC[C@H](O)CC5)c(Cl)c4)c(Oc4cc(F)cc5[nH]ncc45)c3)CC2)=C(c2ccc(Cl)cc2)C1` [Compound 14, N-({5-chloro-6-[(trans-4-hydroxycyclohexyl)methoxy]pyridin-3-yl}sulfonyl)-4-(4-{[2-(4-chlorophenyl)-4,4-dimethylcyclohex-1-en-1-yl]methyl}piperazin-1-yl)-2-[(6-fluoro-1H-indazol-4-yl)oxy]benzamide], the pKi is 7.70 in test [1] and over 11.00 in test [8]. Further, the pEC50 in test [2] was 5.45; in [3], 7.66. Moreover, in test [5] (1 oral dose of 100 mg/kg), the “Day 1 Lymphocytes” value is given as 3.02 ×10^6. Also, in [5] (4 oral doses of 100 mg/kg), the “Day 4 lymphocytes” value was 2.33 ×10^6. The results for the inhibition in vivo at 100 mg/kg in test [5] (setting [11]) and in test [5] (setting [12]) were 54% and 73%, respectively.

With `CC1(C)CCC(CN2CCN(c3ccc(C(=O)NS(=O)(=O)c4ccc(OCC5(F)CCOCC5)c(Cl)c4)c(Oc4cnc5[nH]ccc5c4)c3)CC2)=C(c2ccc(Cl)cc2)C1` [Compound 15, N-({3-chloro-4-[(4-fluorotetrahydro-2H-pyran-4-yl)methoxy]phenyl}sulfonyl)-4-(4-{[2-(4-chlorophenyl)-4,4-dimethylcyclohex-1-en-1-yl]methyl}piperazin-1-yl)-2-(1H-pyrrolo[2,3-b]pyridin-5-yloxy)benzamide], in test [1], the pKi is 7.21. The pEC50 was under 5.30 in test [2] and 7.46 in test [3]. The “Day 1 Lymphocytes” value in [5] (1 oral dose of 100 mg/kg) is given as 1.85 ×10^6. Moreover, the “Day 4 lymphocytes” value in test [5] (4 oral doses of 100 mg/kg) is 1.65 ×10^6. The inhibition in vivo at 100 mg/kg is 72% in test [5] (setting [11]) and 81% in test [5] (setting [12]).

For `CC1(C)CCC(CN2CCN(c3ccc(C(=O)NS(=O)(=O)c4ccc(OCC5(F)CCOCC5)c([N+](=O)[O-])c4)c(Oc4cnc5[nH]ccc5c4)c3)CC2)=C(c2ccc(Cl)cc2)C1` [Compound 16, 4-(4-{[2-(4-chlorophenyl)-4,4-dimethylcyclohex-1-en-1-yl]methyl}piperazin-1-yl)-N-({4-[(4-fluorotetrahydro-2H-pyran-4-yl)methoxy]-3-nitrophenyl}sulfonyl)-2-(1H-pyrrolo[2,3-b]pyridin-5-yloxy)benzamide], in [1], the pKi is 7.82. In addition, the pEC50 in test [2] is 5.41; in test [3], 8.68; in test [4] it was 7.51; in test [6], 9.15. Further, the “Day 1 Lymphocytes” value in test [5] (1 oral dose of 100 mg/kg) was 1.77 ×10^6. Moreover, the “Day 4 lymphocytes” value in test [5] (4 oral doses of 100 mg/kg) was 1.99 ×10^6. The inhibition in vivo at 100 mg/kg in [5] (setting [11]) is 73%; in [5] (setting [12]) it was 77%.

As to `COc1c(C)c2c(c(O)c1C/C=C(\C)CCC(=O)OCCN1CCOCC1)C(=O)OC2` [MMF, mycophenolate mofetil, reference compound], the results for the “% Mice with PU < 300 mg/dL” value in test [9] and in test [10] were 40* % and 94* %, respectively. For the same compound, the “% Survival” value is listed as 72* % in [9] and 100* % in test [10].

The pEC50 is −log10 of the EC50, conventionally taken in molar units.
